From PMC9962452, “Modified Linear Peptides Effectively Silence STAT-3 in Breast Cancer and Ovarian Cancer Cell Lines” (Pharmaceutics, 2023) come the findings set out here.

In assay [1] the test system is scrambled siRNA. Put plainly: SYBR green dye exclusion assay, binding of peptides to siRNA. The conditions noted are these: scrambled siRNA in normal saline, N/P 0.05 to 40, 30 min room temperature, triplicates, sigmoidal model, value is an N/P ratio. Here is the method: As previously reported, the binding affinity of selected peptides to siRNA was investigated using the SYBR green exclusion assay. The MLPs and scrambled siRNA were mixed in normal saline (in triplicates) with different N/P ratios ranging from 0.05 to 40. The mixture was incubated at room temperature for 30 min to ensure complete complexation of peptides and siRNA. After the incubation time, the complexes were transferred to a black 96-well plate. SYBR green dye solution for this assay was made by diluting 1 part of SYBR green dye with 10,000 parts of purified water. Then, 200 µL of the freshly made SYBR green dye dilution was added to each siRNA complex in the black 96-well plate. The plate was covered with aluminum foil before reading in a micro-plate reader that detected the fluorescent signal (485 nm excitation and 527 nm emission). […] The percentage of the siRNA complexed with the peptide was determined using the following equation: % siRNA bond to peptide=100−Fluorescence signal for complexed siRNA /Fluorescence signal for free siRNA×100 % siRNA bound to the peptide was plotted against a range of nitrogen to phosphate (N/P) ratios used in the experiment, and BR50 (the N/P ratio of the complex required to bind 50% of siRNA) was determined using a sigmoidal model. […]

The subject of assay [2] is STAT3 in MDA-MB-231 cells. Kind of assay: Western blot of STAT3 protein after STAT3 siRNA delivery, MDA-MB-231. The format is cell-based. The conditions noted are these: n = 3. Here is the method: The Western blot assay was used to evaluate the expression of STAT-3 protein in MDA-MB-231 cells using the protocol adopted from our previous study. Briefly, the cells were grown in T25 flasks and treated with MLP-siRNA complexes at N/P ratios of 20 and 40 for 48 h. Following treatment, the cells were harvested as pellets in microtubes and were lysed using RIPA lysis buffer supplanted with a protease inhibitor. The lysate was centrifuged for 15 min at 12,000 rpm at 4 °C to allow the separation of all cell proteins. The supernatant containing all cell proteins was separated in pre-cooled microtubes and the protein was quantified using the standard […].
Following the quantification of protein, the samples representing 15 µg of protein were mixed with gel loading dye and loaded in the wells of pre-formed gels and the electrophoresis was carried out at 200 V for 40 min. After the complete run, the gels were transferred to the Western blotting membrane using the Trans-Blot® machine. After successfully transferring gels onto the membrane, the membrane was blocked in 5% Bovine Serum Albumin in TBS-T buffer consisting of 1X tris-buffered saline and 0.1% Tween 20. […] Finally, the membrane was visualized under the Bio-Rad Imager, and the bands were quantified using Image Lab software. […]
For orientation: A western blot detects proteins with antibodies after separation by electrophoresis.

The test system of the next assay is MDA-MB-231 cells. Put plainly: Confocal microscopy of siRNA internalization. Conditions: N/P ratio 40, 24 h, Alexa Fluor 488-labeled siRNA, comparable to Lipofectamine 2000. The format is cell-based. Here is the method:
In order to visualize and locate the internalized siRNA, samples for confocal microscopy were prepared using MDA-MB-231 cells, adopting the protocol described previously by our lab. Briefly, sterile 6-well plates were used, and sterile coverslips were placed at the bottom of each well. MDA-MB-231 cells suspended in 2 mL of media were seeded in each well, and the plates were incubated in an incubator at standard growth conditions. After incubation, the cells were exposed to MLPs-fluorescent-labeled siRNA complexes at a N/P ratio of 40 using the same method described above for the FACS assay. The treated cells were again incubated for 24 h to allow for the internalization of siRNA. After overnight incubation, the media was drained from each well, and the cells were rigorously washed with HBSS three times, followed by fixation with 3.7% formaldehyde in the HBSS solution. Following fixation, the cells were treated with Texas Red for 1 h at room temperature to stain the cell membrane. After 1 h of staining with Texas Red, the cells were stained with DAPI overnight at room temperature in a dark environment to stain the nuclei. Following successful nuclei staining, the coverslips containing fixed stained cells were transferred to slides for viewing under a high-definition confocal microscope (Nikon A1 R). […]

The subject of assay [3] is scrambled siRNA. Put plainly: Gel retardation / gel shifting assay, binding of peptides to siRNA. The conditions noted are these: 1% agarose, ethidium bromide, N/P 0 to 60, 30 min room temperature, bands quantified with Image Lab, value is an N/P ratio. Here is the method:
In addition to the SYBR green dye exclusion assay described above, the binding affinity of the peptides to siRNA was also determined using the gel retardation/gel shifting assay. Briefly, the MLPs-siRNA complexes were prepared at different N to P ratios ranging from 0 to 60. The N/P ratio of zero represents free siRNA. The tubes containing complexes were incubated at room temperature for 30 min for complete complex formation. After this incubation time, the complexes were mixed with gel-loading dye. Each of the samples was loaded into the wells of 1% agarose gel with (1 μg/mL) ethidium bromide, and […] and 70 Volts were used to run the gel for 20 min. After the run, the gels were visualized under a Bio-Rad imager. The intensity of the bands was quantified by Image Lab software.
To support the data obtained by the SYBR green dye exclusion assay, the binding affinity of the MLPs with siRNA was also determined by the gel retardation assay (Figure 2). For this purpose, the MLPs-siRNA complexes were made in microtubes using purified normal saline at different N to P ratios ranging from 0 to 60. The N to P ratio of 0 represents siRNA only, with no peptide. The solutions in microtubes were allowed to stay at room temperature for 30 min to confer complete complex formation via electrostatic interactions between the MLPs and siRNA. […]
For orientation: Mobility shift assays separate free from complexed probe on a gel.

On to “AcNH-K(oleyl)-βA-βA-W4-βA-βA-R4-CONH2 [MLP4, oleic acid conjugated peptide, oleyl chain on the Lys side chain]”, for which, in the assay with scrambled siRNA [1], the “BC50 ± SD (N/P ratio required for 50% binding of siRNA)” value is 0.963 ± 0.34. In addition, the “Downregulation of STAT3 protein” value is given as over 90% in assay [2] (N/P ratio 20, 48 h) and over 90% in assay [2] (N/P ratio 40, 48 h, GAPDH housekeeping). In addition, the “Internalization of siRNA seen by confocal microscopy” value in the assay with MDA-MB-231 cells is recorded as “significant internalization of siRNA in the cytosol”. Moreover, the “BC50 (from quantified gel bands)” value with scrambled siRNA [3] worked out at 0.9001.
